Experimental data from article PMC12097015, “Development of MDM2‐Targeting PROTAC for Advancing Bone Regeneration” (Advanced Science, 2025).
Like-named read-outs stand apart in the source and are kept apart here.

How the values were obtained:
[1] = Pharmacokinetic study in BALB/c mice; type: in vivo; details: mouse, plasma; for MRT last: read-out: MRT0–t; for MRT inf: read-out: MRT0–∞
Protocol: Pharmacokinetic (PK) studies of CL144 were conducted by Medicilon Preclinical Research (Shanghai) LLC. Six BALB/c mice were divided into two groups, and CL144 was administered by tail vein injection (iv; 1.0 mg kg^−1) or gavage (po; 10 mg kg^−1). Blood samples were collected from the submandibular vein at 0.083, 0.25, 0.5, 1, 4, and 24 h for the iv group and at 0.25, 0.5, 1, 3, 6, and 24 h for the po group. Blood samples were centrifuged at 6800 x g for 6 min at 2–8 °C within 1 h after collection and stored at ≈−80 °C. Plasma samples were analyzed by LC‐MS/MS (TQ6500+), and PK parameters were calculated using the FDA‐certified pharmacokinetic program Phoenix WinNonlin 7.0 (Pharsight, USA).

[2] = target: T1, MDM2 (Homo sapiens, UniProt Q00987); experiment: MDM2 degradation by western blot in hBMSCs; type: cell-based; design: endogenous in cells; host or cells: hBMSCs
T1 sequence (Q00987 whole entry): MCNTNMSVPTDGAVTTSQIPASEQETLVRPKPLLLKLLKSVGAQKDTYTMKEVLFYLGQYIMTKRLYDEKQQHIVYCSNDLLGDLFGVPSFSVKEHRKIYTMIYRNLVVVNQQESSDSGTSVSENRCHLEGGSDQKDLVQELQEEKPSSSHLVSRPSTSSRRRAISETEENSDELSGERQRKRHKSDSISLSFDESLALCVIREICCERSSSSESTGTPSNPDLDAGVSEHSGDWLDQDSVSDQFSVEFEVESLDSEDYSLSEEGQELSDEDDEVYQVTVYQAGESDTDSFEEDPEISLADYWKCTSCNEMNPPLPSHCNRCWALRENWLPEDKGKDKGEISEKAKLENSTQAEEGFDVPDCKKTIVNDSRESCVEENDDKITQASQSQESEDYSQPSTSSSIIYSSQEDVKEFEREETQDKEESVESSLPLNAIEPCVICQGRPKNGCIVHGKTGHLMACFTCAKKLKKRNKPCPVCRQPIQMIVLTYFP
Protocol: Human Bone Marrow‐derived Mesenchymal Stem Cells (hBMSCs) were provided by Professor Lee's laboratory, and cells from passages four to nine were used for all experiments. hBMSCs were cultured in alpha‐minimum essential medium (Welgene, LM008‐01) supplemented with 10% Fetal Bovine Serum (FBS) (Gibco, US origin, 16000–044) and 1% penicillin/streptomycin (Gibco, 15140‐122).
After discarding the medium and washing the cells twice with cold dPBS, the cells were collected using a scraper and lysed using RIPA buffer (GenDEPOT, R4200‐010) containing protease and phosphatase inhibitors (GenDEPOT, P3200‐001). The collected samples were centrifuged at 13 200 rpm for 10 min at 4 °C, and the supernatant containing total protein was collected. SDS‐PAGE gels (10–12%) were prepared, and protein samples were mixed with 5X loading buffer containing reducing agent (Biosesang, S2002) and heated at 98 °C for 5 min. Equal amounts of protein samples were loaded onto a gel, separated by electrophoresis, and transferred onto nitrocellulose membranes using a Dry Transfer Stacks Kit (Invitrogen, IB23001). The membrane was blocked with 5% nonfat milk in 1X TBST for 1 h at room temperature to prevent nonspecific binding. The membranes were incubated with primary antibodies specific to the target proteins overnight at 4 °C with gentle shaking. The next day, the membrane was washed three times with TBST at 10 min intervals to remove unbound primary antibodies. The membranes were incubated with secondary antibodies (anti‐rabbit and anti‐mouse) conjugated to horseradish peroxidase (HRP) for 1 h at room temperature. The membrane was washed three times with 1X TBST at 10 min intervals to remove unbound secondary antibodies. After washing, a chemiluminescent substrate (ECL, Millipore, WBULS0100) was applied to the membrane to visualize protein bands using a chemiluminescence detector (for the antibodies used, see Table S2, Supporting Information).
The DC50 and Dmax values were calculated by western blot band quantification according to compound concentrations. The quantification value was normalized to the value relative to the untreated group and calculated using the sigmoidal dose‐response (variable slope) equation in GraphPad Prism.

[3] = target: T1, MDM2; experiment: Immunoprecipitation of MDM2 ubiquitination in HeLa cells overexpressing MDM2 and HA-tagged ubiquitin; type: cell-based; design: host or cells: HeLa; details: 10 µM, within 60 min
Protocol: (§1) HeLa cells were cultured in DMEM (Welgene, LM001‐05) supplemented with 10% FBS (Welgene, S001‐07). For transient transfection, the cells were seeded at ≈70% confluence. The following day, transfection was performed using Lipofectamine 3000 (Invitrogen, L3000015) for 24 h according to the manufacturer's protocol. The cells were transfected with 100 ng of EGFP‐MDM2 per well in the 96‐well plate and were transfected with 2 µg of MDM2 WT and 2 µg of HA‐ubiquitin, total 4 µg per well in the 6‐well plate.
Hela cells (passage. 5) 7 × 10^5 cells well^−1 were seeded in a 6‐well plate and allowed to adhere overnight (o/n). The next day, WT MDM2 and HA‐ubiquitin plasmid transfection was performed using Lipofectamine 3000 for 24 h, according to the manufacturer's instructions. After transfection for 24 h, cells were treated with CL144 for different time intervals, including 15, 30, and 60 min. After drug treatment, the cells were lysed using immunoprecipitation (IP) lysis buffer (ThermoFisher, 87788) supplemented with a protease inhibitor cocktail (PIC). The cell lysates were harvested for subsequent experiments. The cell lysate was incubated with a HA‐tag primary antibody (1′Ab) at 4 °C overnight to capture the target protein complexes. The next day, the antibody–protein complexes were bound to the beads for 1 h. The beads were washed three times with IP lysis buffer to remove nonspecific binding. […]

[4] = test system: EGFP‐MDM2; experiment: EGFP-MDM2 fluorescence / live imaging degradation assay; type: cell-based
Protocol: as §1
To construct the EGFP‐MDM2 plasmid DNA, MDM2 WT was amplified by PCR using specific primers. The PCR products were digested with BamH1 and EcoR1 to generate compatible ends. The plasmid backbone, EGFP‐C1, previously digested with the same enzyme, was ligated into the digested PCR product using T4 ligase (Biolabs, M0202S). The resulting plasmid construct was confirmed using restriction enzyme digestion and DNA sequencing. MDM2 WT (#16233) and HA‐ubiquitin (#18712) were purchased from Addgene (used primer sequences, see Table S2, Supporting Information).
Real‐time Live cell imaging (phase contrast, EGFP fluorescence) was performed to monitor EGFP‐MDM2 intensity at 7 min intervals after compound treatment using Cytation5 (Agilent) laser autofocus conditions to capture EGFP fluorescence to assess intensity. For fluorescence imaging, the cells were fixed using 4% PFA and washed three times with 1X dPBS. Fluorescence imaging was performed using the Cytation5. The intensity of fluorescence was assessed by tracking the fluorescence of individual cells in each image using the Time‐lapse analyzer or ROI measure feature of the Fiji ImageJ software (Version 1.54 h, USA).

## COc1ccc(C2=N[C@H](c3ccc(Cl)cc3)[C@H](c3ccc(Cl)cc3)N2C(=O)N2CCN(CC(=O)NCCCCCCCCOc3cccc4c3C(=O)N(C3CCC(=O)NC3=O)C4=O)C(=O)C2)c(OC(C)C)c1 (stereo in doubt) [CL144]
[1]; 1.0 mg kg^−1 (iv)
  AUC(0-inf): 546 ± 39 ng·h/mL
  AUC(0-t): 532 ± 35 ng·h/mL
  Cmax: 1630 ± 111 ng/mL
  Tmax: 4.98 min
  clearance: 30.6 ± 2.1 mL/min/kg
  half-life: 70.8 ± 6.6 min
  MRT last: 16.8 ± 1.2 min
  MRT inf: 25.2 ± 3.6 min
[1]; 1.0 mg kg^−1 (iv), read-out: V ss
  Vd: 0.774 ± 0.092 L/kg
[1]; 1 mg kg^−1, intravenous administration
  AUC(0-t): 532 ng·h/mL
[1]; 10 mg kg^−1 (po)
  AUC(0-inf): 256 ± 49 ng·h/mL
  AUC(0-t): 252 ± 44 ng·h/mL
  Cmax: 106 ± 9 ng/mL
  Tmax: 49.8 ± 17.4 min
  bioavailability: 4.74 ± 0.83%
  half-life: 55.8 ± 15.6 min
  MRT last: 94.8 ± 21.6 min
  MRT inf: 100 ± 27.6 min
[2]; 0.1 µM to 10 µM
  MDM2 degradation, dose-dependent effect: robust MDM2 degradation
[2]; 10 µM, neo-substrate experiment
  MDM2 degradation: ≈ 70%
[2]; 10 μΜ for 1 h
  decrease in MDM2 levels compared to the basal level: over 80%
[2]; quantified western blot, 1 nM to 50 µM, n = 2
  maximal degradation concentration (Dmax): 1 μΜ
[2]; quantified western blot, 1 nM to 50 µM, n = 2, read-out: half‐maximal degradation concentration (DC50)
  DC50: 90 nM
[3]
  increase of ubiquitination level of MDM2: 2.65 fold
[4]; 1 µM
  EGFP‐MDM2 maximal degradation efficacy: 84%
[4]; EGFP‐MDM2 expressing cells, 1 nM to 50 µM, n = 3
  Dmax (EGFP signal intensity): 1 μΜ
[4]; EGFP‐MDM2 expressing cells, 1 nM to 50 µM, n = 3, read-out: DC50 (EGFP signal intensity)
  DC50: 250 nM
[4]; live imaging, 0.01 to 10 µM
  concentration at which maximum degradation efficiency was achieved: 10 µM
[4]; live imaging, treatment for 4 h
  nuclear EGFP signal: almost completely turned off the nuclear EGFP signal
